# Test results taken from US8709457B2, “Hydroxylated amide skin moisturizer” (L'Oreal, priority 2006, dated 2014).
# System: Stratum Corneum
# Test: Dermometer, mechanical measurement of the plasticizing effect (elastic modulus of Stratum Corneum)
# Details: for plasticizing effect on the stratum corneum (in words) / ranking of plasticizing effect among tested compounds: 3% aqueous solution, 30° C., 75% RH; for Relative variation in the elastic modulus of Stratum Corneum, 2H / Relative variation in the elastic modulus of Stratum Corneum, 20H: 30° C. and 75% relative humidity, products tested at 3% in water (controls in water), mean ± standard deviation, 10 samples; for Relative variation in the elastic modulus of Stratum Corneum, 2H: 2 h after application; for Relative variation in the elastic modulus of Stratum Corneum, 20H: 20 h after application
# Protocol: A test was performed to evaluate the moisturizing potential of the compounds of the invention which are formulated in a 3% aqueous solution.
# Dermometer, mechanical measurement of the plasticizing effect (described by J de Rigal, J-L. Leveque, International Journal of Cosmetic Science, 1982, 247-260).
# The tests carried out were performed under the standard conditions on stratum corneum in a chamber at controlled temperature and humidity (T=30° C. and RH=75%). The elastic modulus measurements are performed on each control test specimen and then 2 hours and 20 hours after application of the treatment. The relative variation in the modulus makes it possible to assess the plasticizing effect of the active agent on the Stratum Corneum.
# The mean and the standard deviation were calculated on 10 stratum corneum samples.
Compound,plasticizing effect on the stratum corneum (in words),"Relative variation in the elastic modulus of Stratum Corneum, 2H","Relative variation in the elastic modulus of Stratum Corneum, 20H",ranking of plasticizing effect among tested compounds
"NC(=O)[C@H](O)[C@H](O)CO [Compound 3, (2R,3R)-2,3,4-Trihydroxybutanamide]",significant plasticizing effect,−32 +/− 18%,−34 +/− 15%,
"OCC(O)CO [Glycerol, reference compound]",,−41 ± 12%,−51 ± 15%,
"O=C(NCCO)[C@H](O)[C@H](O)CO [Compound 9, (2R,3R)-2,3,4-trihydroxy-N-(2-hydroxyethyl)butanamide]",significant plasticizing effect,−26 +/− 14%,−27 +/− 16%,
"NC(N)=O [Urea, reference compound]",,−72 ± 9%,−83 ± 7%,
"O=C([C@H](O)[C@H](O)CO)N(CCO)CCO [Compound 14, (2R,3R)-2,3,4-trihydroxy-N,N-bis(2-hydroxyethyl)butanamide]",significant plasticizing effect,−23 +/− 18%,−49 +/− 14%,most effective
"CCN(CCO)C(=O)[C@H](O)[C@H](O)CO [Compound 15, (2R,3R)—N-ethyl-2,3,4-trihydroxy-N-(2-hydroxyethyl)butanamide]",significant plasticizing effect,-28 +/− 10%,−48 +/− 12%,most effective
"C[Si](C)(C)CNC(=O)[C@H](O)[C@H](O)CO [Compound 5, (2R,3R)-2,3,4-trihydroxy-N-[(trimethylsilyl)methyl]butanamide]",significant plasticizing effect,−34 +/− 15%,−31 +/− 18%,
